Data taken from article PMC11081522, “In silico identification of a novel Cdc2‐like kinase 2 (CLK2) inhibitor in triple negative breast cancer” (Protein Science : A Publication of the Protein Society, 2024).
Read-outs that look alike come from different tables or passages of the source.

Key:
Type in all cases: biochemical
[1] = biological target: T1, CLK2 (Cdc2-like kinase 2) (Homo sapiens, UniProt P49760); assay: Z'LYTE FRET peptide kinase assay
T1 construct: commercial enzyme of Thermo Fisher SelectScreen service
T1 sequence (P49760 whole entry): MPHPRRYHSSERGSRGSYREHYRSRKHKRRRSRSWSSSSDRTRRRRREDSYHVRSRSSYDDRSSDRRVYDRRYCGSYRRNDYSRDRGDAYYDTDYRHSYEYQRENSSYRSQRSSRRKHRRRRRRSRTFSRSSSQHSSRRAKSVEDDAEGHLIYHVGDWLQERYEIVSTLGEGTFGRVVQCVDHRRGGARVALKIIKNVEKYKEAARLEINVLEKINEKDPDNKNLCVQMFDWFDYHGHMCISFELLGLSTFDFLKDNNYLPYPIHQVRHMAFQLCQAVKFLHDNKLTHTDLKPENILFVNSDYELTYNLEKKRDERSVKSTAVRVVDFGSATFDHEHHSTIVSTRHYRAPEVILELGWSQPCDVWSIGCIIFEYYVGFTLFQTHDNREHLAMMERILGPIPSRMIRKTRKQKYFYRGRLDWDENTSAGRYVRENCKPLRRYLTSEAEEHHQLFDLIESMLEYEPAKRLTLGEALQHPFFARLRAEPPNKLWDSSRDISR
Excerpt: Z'LYTE FRET peptide kinase assay on CLK2 (Cdc2-like kinase 2)

[2] = biological target: T2, CLK3 (Homo sapiens, UniProt P49761); assay: kinase selectivity panel
T2 construct: kinase selectivity panel enzyme
T2 sequence (P49761 whole entry): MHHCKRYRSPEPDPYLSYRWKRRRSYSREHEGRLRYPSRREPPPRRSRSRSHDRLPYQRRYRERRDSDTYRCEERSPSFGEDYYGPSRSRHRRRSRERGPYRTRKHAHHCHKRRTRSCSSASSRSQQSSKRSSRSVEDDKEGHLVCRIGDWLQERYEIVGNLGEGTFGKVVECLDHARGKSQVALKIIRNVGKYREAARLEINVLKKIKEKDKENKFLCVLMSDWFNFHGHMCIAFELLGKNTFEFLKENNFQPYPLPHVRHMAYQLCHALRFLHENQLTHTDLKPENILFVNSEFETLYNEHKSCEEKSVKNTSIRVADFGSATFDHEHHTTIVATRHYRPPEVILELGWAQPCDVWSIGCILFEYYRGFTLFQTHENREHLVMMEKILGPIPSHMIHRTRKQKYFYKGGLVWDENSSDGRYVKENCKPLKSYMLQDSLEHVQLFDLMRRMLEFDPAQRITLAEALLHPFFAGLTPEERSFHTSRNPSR

[3] = biological target: T3, TTK (Threonine tyrosine kinase; Monopolar Spindle 1, Mps1) (Homo sapiens, UniProt P33981); assay: kinase selectivity panel
T3 construct: kinase selectivity panel enzyme
T3 sequence (P33981 1-857): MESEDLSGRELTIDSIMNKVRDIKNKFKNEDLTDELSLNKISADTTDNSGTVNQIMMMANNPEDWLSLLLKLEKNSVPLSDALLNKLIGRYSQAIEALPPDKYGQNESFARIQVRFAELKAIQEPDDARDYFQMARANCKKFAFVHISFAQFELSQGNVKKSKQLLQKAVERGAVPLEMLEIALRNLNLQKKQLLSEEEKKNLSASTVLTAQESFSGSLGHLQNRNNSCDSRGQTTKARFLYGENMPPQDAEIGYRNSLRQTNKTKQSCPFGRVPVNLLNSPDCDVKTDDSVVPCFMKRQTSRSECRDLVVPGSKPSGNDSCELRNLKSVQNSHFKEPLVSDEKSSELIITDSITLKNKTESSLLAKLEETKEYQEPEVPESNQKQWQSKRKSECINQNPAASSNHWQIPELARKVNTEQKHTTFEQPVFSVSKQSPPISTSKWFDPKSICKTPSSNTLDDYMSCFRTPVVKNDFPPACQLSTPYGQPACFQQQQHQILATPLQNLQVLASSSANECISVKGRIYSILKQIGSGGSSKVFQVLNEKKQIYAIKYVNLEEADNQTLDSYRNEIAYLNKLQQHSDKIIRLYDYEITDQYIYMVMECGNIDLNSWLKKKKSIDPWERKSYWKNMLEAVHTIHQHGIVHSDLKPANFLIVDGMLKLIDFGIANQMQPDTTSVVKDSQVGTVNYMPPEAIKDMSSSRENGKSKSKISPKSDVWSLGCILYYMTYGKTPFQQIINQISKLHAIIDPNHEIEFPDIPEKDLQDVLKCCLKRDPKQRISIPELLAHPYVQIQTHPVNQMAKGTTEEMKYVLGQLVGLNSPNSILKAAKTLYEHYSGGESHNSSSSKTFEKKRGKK

CSc1nc(Cl)cc(Sc2nc(N)nc3nc[nH]c23)n1 [compound 51564, 51564] showed an IC50 ([1]; ATP and peptide substrate, 1% DMSO, room temperature, 60 min) of 1330 nM.
With Nc1ncnc2oc(-c3ccccc3)c(-c3ccccc3)c12 [compound 153298, 153298] the IC50 [1] was 2240 nM.
Work on CC(c1ccccc1)n1c2ccccc2c2c(N)ncnc21 (centres unmarked) [compound 670551, Compound 670551] yielded an inhibition at 1 µM [2] of 46%, an inhibition at 1 µM [3] of 43% and an IC50 [1] of 620 nM.
